Source: article PMC9828538, “Antigiardial Activity of Novel Guanidine Compounds” (Chemmedchem, 2022)
≈ marks a conversion by molar mass, not a printed value. Counter-ions that a name gives are not always drawn. Like-named read-outs stand apart in the source and are kept apart here.

Legend:
[1] = system: Vero cells; experiment: In vitro cytotoxicity, Vero cells; settings: 25 μM; for Toxicity (% growth control): Percent Vero cell growth; for Toxicity (% growth control) / Toxicity (Y/N): 24 h
Experimental: (§1) Biology Materials and Methods: […]
(§2) CaCo-2 cells, a human cell line derived from a primary colonic tumour, were sourced from Cellbank Australia and were maintained in MEM supplemented with 2 mM glutamine, 1% non-essential amino acids and 10% FCS (Thermo Scientific). Cells were passaged when confluent, approximately 1-2 times per week. Vero cells were also obtained from Cellbank Australia and maintained as above.
(§3) In vitro drug efficacy assays […]
(§4) The media was removed and replaced with an equal volume of warm PBS. Resazurin (Sigma) was then added at 10% of the total volume of the wells. Plates were further incubated for colour development and absorbance read at 570 nm and 630 nm. Resazurin reduction was calculated according to the following formula: […]
CaCo-2 or Vero cells, maintained as outlined above, were collected via trypsinisation and enumerated using trypan blue and a haemocytometer. Select analogues were prepared in DMSO so that the final concentration in the assay […]
in 96 well plates and incubated for 24 hours at 37°C, 5% CO2 in a humidified incubator. After incubation cells were […]
washed with warm PBS before the addition of 10% resazurin in PBS. Assays were incubated to allow colour development and absorbance read at 630 and 570nm. Activity of the analogues against mammalian cells was calculated according to the formula stated above. […]
reduction assay the mean and standard error of the mean was determined with each assay completed in triplicate.
The IC50 was calculated using the log (inhibitor) vs. normalised response – variable slope function in Graphpad […]

[2] = system: Escherichia coli; experiment: Antibacterial activity against gram negative bacteria (E. coli); assay type: cell-based
Experimental: (§5) Biology Materials and Methods:
Metronidazole was sourced from sigma. […]
hydrogen orthophosphate (Fronine laboratory supplies, Riverstone, NSW).
Subcultures were performed once a confluent
Scientific). […] Vero cells were also obtained from Cellbank Australia and maintained as above.
(§6) In vitro drug efficacy assays
Resazurin Reduction Assay
For all assays the media of confluent cultures
2007). […] Resazurin (Sigma) was then
Plates were further incubated for colour development and absorbance read at 570 nm and 630 nm. Resazurin reduction was calculated according to the following formula: […]
broth for a random selection of compounds (Thermofisher Scientific). Compounds were diluted in DMSO to 100X […]
Cells were incubated for 18-24 hrs before interpretation of results. […]
blue and a haemocytometer. […]
was 25 μM. […] Assays were completed
After incubation cells were […]

[3] = system: CaCo-2 cells; settings: human, 24 h, 25 μM
Experimental: as §1, §2, §3
as §4, with “2007). The” for “The”
(§7) CaCo-2 or Vero cells, maintained as outlined above, were collected via trypsinisation and enumerated using trypan blue and a haemocytometer. Select analogues were prepared in DMSO so that the final concentration in the assay was 25 μM. 1 X 10^5 cells/ml were added to each assay with the appropriate drug dilution. Assays were completed in 96 well plates and incubated for 24 hours at 37°C, 5% CO2 in a humidified incubator. After incubation cells were […]
(§8) washed with warm PBS before the addition of 10% resazurin in PBS. Assays were incubated to allow colour development and absorbance read at 630 and 570nm. Activity of the analogues against mammalian cells was calculated according to the formula stated above.

[4] = system: Giardia duodenalis trophozoites (BAH2c2 strain); experiment: Resazurin reduction assay on Giardia trophozoites in vitro; assay type: cell-based; settings: for MIC: minimum inhibitory concentration, read-out: Antigiardial activity MIC (24 h); for Selectivity ratio: higher ratios = more selective; for Antigiardial activity MLC (24 h): minimum lethal concentration; for Antigiardial activity at 5 h: 25 μM
From the text: as §5
Metronidazole was sourced from sigma.
Chemicals used for the culture of Giardia in vitro were sourced as follows: glucose and L-cysteine (ACROS organics, Thermo Fisher Scientific, Scoresby, Vic), Ammonium Iron (III) citrate, ascorbic Acid (Sigma -aldrich, Castle Hill, NSW), potassium dihydrogen orthophosphate (UNIVAR, Ingleburn, NSW), bovine bi le (Fluka analytical (BD)), di-potassium hydrogen orthophosphate (Fronine laboratory supplies, Riverstone, NSW).
G. duodenalis (BAH2c2 strain) was cultivated according to the method of Clark and Diamond in Keister’s modified TYI-S-33 medium, supplemented with heat inactivated foetal bovine serum (Hyclone™, Thermo Scientific, Scoresby, Vic) at 37°C in plastic 9 mL screw-capped test tubes (nunc). Subcultures were performed once a confluent monolayer was observed, approximately 2 – 3 times per week (Clark and Diamond, 2002).
as §2, §6
Resazurin Reduction Assay […]
tested to identify the IC50 and minimum lethal concentration (MLC). For all assays the media of confluent cultures was replaced with fresh media and the cultures were placed on ice for 40 minutes to detach trophozoites.
Trophozoites were enumerated using a haemocytometer and 50 000 trophozoites were added to each test well of a 96 well plate. Either single concentrations (final concentration 25 μM) for the screening assay or tripling dilutions […]
wells. The assays were repeated in triplicate with metronidazole and a DMSO (vehicle only) used as controls. Plates were incubated under anaerobic conditions (anaerogen sachet, Thermofisher scientific) for 5 or 24 hours at 37°C following which the viability of treated cells was determined using the resazurin reduction assay (Benere et al., 2007). The media was removed and replaced with an equal volume of warm PBS. Resazurin (Sigma) was then added at 10% of the total volume of the wells. Plates were further incubated for colour development and absorbance read at 570 nm and 630 nm. Resazurin reduction was calculated according to the following formula: […]
as §7, §8

[5] = system: Giardia; set-up: method as in PMID 14585063; settings: drug treatment of Giardia infection; cited from earlier work
[6] = Giardia duodenalis, 24 h, read-out: Antigiardial activity IC50 (24 h)
[7] = toxicity tested at 25 μM vs 24 h IC50, Tables 1-3
[8] = Vero cells, Tables 1-3 (toxic if >20 % cells affected)
[9] = 24 h, read-out: Antigiardial activity IC50 (24 h)
[10] = Vero cells, Table 4 (toxic if >10 % cells affected)
[11] = toxicity tested at 25 μM vs 5 h IC50, Table 4
[12] = Giardia duodenalis, 5 h, read-out: Antigiardial activity IC50 (5 h)

| IC50 [4, 6] | MIC ([4]; Giardia duodenalis, 24 h) | SMILES | also measured |
| --- | --- | --- | --- |
| 1.7 µM | 8.3 µM | Cl.N=C(NN=Cc1ccc(Br)cc1)NN=Cc1ccc(Br)cc1 [Compound 6] | cell death ([1]; Vero cells): < 10%; Activity against gram negative bacteria / E. coli [2]: no antibacterial activity; Toxicity (% growth control) [3]: 97.1±1.6%; cell death [3]: < 10%; Selectivity ratio [4, 7]: >14.7 |
| 6.52 µM | 12.5 µM (≈ 3.77 µg/mL) | N=C(NN=Cc1ccc(F)cc1)NN=Cc1ccc(F)cc1 [Compound 7] | – |
| – | 25 µM (≈ 7.33 µg/mL) | Cc1ccc(C=NNC(=N)NN=Cc2ccc(C)cc2)cc1 [Compound 14] | – |
| 4.9 µM | 6.25 µM (≈ 1.83 µg/mL) | Cc1cccc(C=NNC(=N)NN=Cc2cccc(C)c2)c1 [Compound 15] | – |
| 0.4 µM | 2.8 µM (≈ 1.17 µg/mL) | N=C(NN=Cc1ccc(-c2ccccc2)cc1)NN=Cc1ccc(-c2ccccc2)cc1 [Compound 17] | – |
| 0.8 µM | 8.3 µM (≈ 2.9 µg/mL) | CCCc1ccc(C=NNC(=N)NN=Cc2ccc(CCC)cc2)cc1 [Compound 19] | – |
| 1.9 µM | 8.3 µM (≈ 3.13 µg/mL) | CCCCc1ccc(C=NNC(=N)NN=Cc2ccc(CCCC)cc2)cc1 [Compound 20] | – |
| 1.9 µM | 6.25 µM (≈ 2.18 µg/mL) | CC(C)c1ccc(C=NNC(=N)NN=Cc2ccc(C(C)C)cc2)cc1 [Compound 21] | – |
| 3.2 µM | 8.3 µM (≈ 3.13 µg/mL) | CC(C)(C)c1ccc(C=NNC(=N)NN=Cc2ccc(C(C)(C)C)cc2)cc1 [Compound 22] | – |
| > 25 µM | – | COc1cccc(C=NNC(=N)NN=Cc2cccc(OC)c2)c1 [Compound 25] | – |
| > 25 µM | – | N=C(NN=Cc1ccc(O)cc1)NN=Cc1ccc(O)cc1 [Compound 27] | – |
| 0.2 µM | – | N=C(NN=Cc1ccc(OC(F)(F)F)cc1)NN=Cc1ccc(OC(F)(F)F)cc1 [Compound 30, 2,2′‐bis{[4‐(trifluoromethoxy)phenyl]methylene}carbonimidic dihydrazide hydrochloride] | – |
| 0.9 µM | – | CSc1ccc(C=NNC(=N)NN=Cc2ccc(SC)cc2)cc1 [Compound 31] | – |
| 0.2 µM | – | N=C(NN=Cc1ccc(SC(F)(F)F)cc1)NN=Cc1ccc(SC(F)(F)F)cc1 [Compound 32, 2,2′‐bis{[4‐(trifluoromethylsulfanyl)phenyl]methylene}carbonimidic dihydrazide hydrochloride] | – |

Second part, the molecule before the results:

| SMILES | IC50 [4, 6] | MIC ([4]; Giardia duodenalis, 24 h) | also measured |
| --- | --- | --- | --- |
| N=C(NN=Cc1cccc(Cl)c1)NN=Cc1cccc(Cl)c1 [Compound 8] | 3.5 µM | 6.25 µM (≈ 2.09 µg/mL) | – |
| N=C(NN=Cc1cccc(Br)c1)NN=Cc1cccc(Br)c1 [Compound 9] | 2.9 µM | 25 µM (≈ 10.6 µg/mL) | – |
| N=C(NN=Cc1cccc(F)c1)NN=Cc1cccc(F)c1 [Compound 10] | > 25 µM | > 25 µM | – |
| Cl.N=C(NN=Cc1ccccc1Br)NN=Cc1ccccc1Br [Compound 11] | 0.8 µM | 25 µM | Activity against gram negative bacteria / E. coli [2]: no antibacterial activity; Toxicity (% growth control) [3]: 79.1±2.3%; Selectivity ratio [4, 7]: >31.3 |
| Cl.N=C(NN=Cc1ccccc1Cl)NN=Cc1ccccc1Cl [Compound 12] | 12.4 µM | 25 µM | Activity against gram negative bacteria / E. coli [2]: no antibacterial activity |
| Cl.N=C(NN=Cc1ccccc1F)NN=Cc1ccccc1F [Compound 13] | > 25 µM | > 25 µM | Toxicity (% growth control) [1]: 93.9±1.9%; Toxicity (Y/N) [1, 8]: N (compounds are indicated as toxic if >20 % cells are affected) |
| Cc1ccccc1C=NNC(=N)NN=Cc1ccccc1C [Compound 16] | – | 25 µM (≈ 7.33 µg/mL) | – |
| Cl.N=C(NN=Cc1ccccc1-c1ccccc1)NN=Cc1ccccc1-c1ccccc1 [Compound 18] | 2.8 µM | > 25 µM | Toxicity (% growth control) [3]: 75.4±3.4%; Selectivity ratio [4, 7]: >8.9 |
| C#Cc1cccc(C=NNC(=N)NN=Cc2cccc(C#C)c2)c1 [Compound 23] | 1.2 µM | 25 µM (≈ 7.83 µg/mL) | – |
| COc1ccc(C=NNC(=N)NN=Cc2ccc(OC)cc2)cc1.Cl [Compound 24] | 5.99 µM | – | Toxicity (Y/N) [1, 8]: Y^[e] (compounds are indicated as toxic if >20 % cells are affected); Selectivity ratio [4, 7]: >4.2 |
| COc1ccccc1C=NNC(=N)NN=Cc1ccccc1OC.Cl [Compound 26] | – | – | Antigiardial activity MLC (24 h) ([4]; 24 h): >25 µM; IC50 [4, 9]: > 25 µM |
| N=C(NN=Cc1cccc(O)c1)NN=Cc1cccc(O)c1 [Compound 28] | > 25 µM | – | – |
| N=C(NN=Cc1ccccc1O)NN=Cc1ccccc1O [Compound 29] | > 25 µM | – | – |
| CN(C)c1ccc(C=NN=C(N)NN=Cc2ccc(N(C)C)cc2)cc1 [Compound 33] | – | – | Antigiardial activity MLC (24 h) ([4]; 24 h): 25 µM; IC50 [4, 9]: 1.1 µM |
| Cl.N=C(NN=Cc1ccc(Cl)cc1Cl)NN=Cc1ccc(Cl)cc1Cl [Compound 34] | – | – | Toxicity (% growth control) [1]: 55.8±4.3%; Toxicity (Y/N) [1, 10]: Y (compounds are indicated as toxic if >10 % cells are affected); Selectivity ratio [4, 11]: >10.0 |
| Cl.N=C(NN=Cc1cc(F)ccc1F)NN=Cc1cc(F)ccc1F [Compound 37] | – | – | Antigiardial activity at 5 h ([4]; 5 h): inactive |
| Cl.N=C(NN=Cc1c(F)c(F)c(F)c(F)c1F)NN=Cc1c(F)c(F)c(F)c(F)c1F [Compound 39] | – | – | Antigiardial activity at 5 h ([4]; 5 h): inactive |
| CC(=O)Nc1cc(Cl)ccc1C=NNC(=N)NN=Cc1ccc(Cl)cc1NC(C)=O.Cl [Compound 40] | – | – | Toxicity (% growth control) [3]: 83.1±4.4%; IC50 [4, 12]: 0.8 µM; Selectivity ratio [4, 11]: >31.3 |
| COc1cc(C=NNC(=N)NN=Cc2cc(Br)c(OC)c(OC)c2)cc(Br)c1OC.Cl [Compound 42] | – | – | Toxicity (Y/N) [1, 10]: Y^[e] (compounds are indicated as toxic if >10 % cells are affected); IC50 [4, 12]: 2.7 µM; Selectivity ratio [4, 11]: >9.3 |
| COc1ccc(C=NNC(=N)NN=Cc2ccc(OC)c(OC)c2)cc1OC [Compound 44] | – | – | IC50 ([4]; 5 h, read-out: Antigiardial activity IC50 (5 h)): 24.9 µM; IC50 [4, 12]: ≤ 25 µM |
| COc1cc(C=NNC(=N)NN=Cc2ccc(O)c(OC)c2)ccc1O [Compound 47] | – | – | IC50 [4, 12]: > 25 µM |
| Cc1ncc([N+](=O)[O-])n1CCO [Metronidazole, metronidazole, reference compound] | 3.8 µM | 8.3 µM (≈ 1.42 µg/mL) | treatment success / reported efficacy [5]: 80–90%; Antigiardial activity at 5 h ([4]; 5 h): inactive; Selectivity ratio [4, 7]: >6.6 |
| CCCSc1ccc2nc(NC(=O)OC)[nH]c2c1 [albendazole] | – | – | treatment success / reported efficacy [5]: 62–95% |
| CCS(=O)(=O)CCn1c([N+](=O)[O-])cnc1C [tinidazole] | – | – | treatment success / reported efficacy [5]: 80–90% |
